The results in this text go back to US6069156A, “Indole derivatives as cGMP-PDE inhibitors” (Fujisawa Pharmaceutical Co., Ltd., priority 1995, dated 2000).

SMILES strings stand for the structures.

Data set [1] is described as follows: Toxicity by repetitive oral administration. As to conditions: 32 mg/kg once a day orally, 14 consecutive days. It counts as in vivo, SD rat.
In another data set the test system is FK506 nephritis. Put plainly: FK506 Nephritis Model (a). As to conditions: orally twice a day for two weeks; FK506 18 mg/kg daily for 1 week. Format: in vivo, Spontaneously hypertensive rats. As for the experimental part: (a) Spontaneously hypertensive rats weighing 250-300 g were used. FK506 dissolved in olive-oil containing 5% ethanol was given orally to the animals in a daily dose 18 mg/kg for 1 week. After the last dosing of FK506, 24-hours urine was collected for urinalysis. Blood was withdrawn from the abdominal aorta under ether anesthesia 24 hours after the last dosing of FK506, and plasma was separated by centrifugation for biochemical analysis.
The each test compound was dissolved in PEG 400 and given orally by the volume of 1 ml/kg twice a day for two weeks.
(§1) Biochemistry and urinalysis: Urine volume, plasma creatinine, urine creatinine, blood urea nitrogen, plasma sodium, urine sodium, plasma potassium and urine potassium, were measured with an autoanalyzer (TBA-20R Toshiba, OM-6020 Daiichi Kagaku).

In data set [2] the test system is streptozotocin-induced diabetes mellitus. Put plainly: Diabetic Glomerulosclerosis Model (streptozotocin). Format: in vivo, Male SD rats. The procedure: Diabetic Glomerulosclerosis Model
6 weeks old Male SD rats were treated with streptozotocin (60 mg/kg i.v.) to induce diabetes mellitus. One week after streptozotocin treatment, test compound, 3.2, 10 mg/kg was started to be orally administered twice a day for 16 weeks.

A further data set deals with Cyclosporin nephritis. Put plainly: Cyclosporin Nephritis Model. It counts as in vivo, Spontaneously hypertensive rats. As to conditions: 3.2 mg/kg orally twice a day for two weeks; cyclosporin 50 mg/kg daily. As for the experimental part: Cyclosporin Nephritis Model
Spontaneously hypertensive rats weighing 250-300 g were used. Cyclosporin dissolved in olive-oil containing 5% ethanol was given orally to the animals in a daily dose 50 mg/kg for 2 weeks. After the last dosing of cyclosporin, 24-hours urine was collected for urinalysis. Blood was withdrawn from the abdominal aorta under ether anesthesia 24 hours after the last dosing of cyclosporin, and plasma was separated by centrifugation for biochemical analysis. The animal were bled to death and kidneys were removed for histopathological examination.
The each test compound (3.2 mg/kg) was dissolved in PEG 400 and given orally by the volume of 1 ml/kg twice a day for two weeks.
as §1
Histopathology: The kidneys were fixed in phosphate-buffered 10% formalin and its paraffin specimens were prepared and these sections were stained with hematoxylin.

The mark [3] stands for this setting: 10 mg/kg orally twice a day for 16 weeks.
Where [4] appears, read: 3.2, 10 mg/kg orally twice a day for 16 weeks.

For the molecule `CCCc1c(C(=O)C(C)C)c2ccc(C(N)=O)cc2n1Cc1ccccc1Cl` [Example 6, 1-(2-chlorobenzyl)-3-isobutyryl-2-propylindole-6-carboxamide], the “death on repetitive oral administration” value in data set [1] is recorded as “the dead at dose of 32 mg/kg once a day for 14 consecutive days could not be observed”. In the data set on FK506 nephritis, the “recovery in a measure of creatinine clearance (ml/kg/min)” value is “more than 45%” and the “recovery in urinary sodium excretion” value is “more than 50%”. Besides, in data set [2] (setting [3]), the “4-hydroxyproline contents in renal cortex” value is given as “perfectly inhibited the increased 4-hydroxyproline contents in renal cortex”, the “reduction on average of the elimination of protein in urine” value is given as 37% and the “valiance of RR intervals in cardioelectrography” value was “perfectly recovered the reduced valiance of RR intervals”. For the same molecule, in data set [2] (setting [4]), the “blood flow in ears” value is listed as “improved the decreased blood flow in ears”, the “onset of diabetic cataract” value is listed as “retarded the onset of diabetic cataract”, the “parameters reflecting the abnormalities of peripheral circulation” value was “improved the parameters reflecting the abnormalities of peripheral circulation” and the “skin temperature on foot pad” value is given as “raised the decreased skin temperature on foot pad”. Also, in the data set with Cyclosporin nephritis, the “recovery in a measure of blood urea nitrogen” value is “more than 50%” and the “recovery in a measure of creatinine clearance (ml/kg/min)” value is “more than 40%”.
